Test results: patent US5670509A, “Tocolytic oxytocin receptor antagonists” (priority 1995, dated 1997)
Where two headings read alike, the source gives them in different places. One block for each molecule: values may come before it.

Legend:
[1] = cited from earlier work
uterine OT receptors = target: T1, uterine OT receptors (Rattus norvegicus, UniProt P70536); experiment: Radioligand binding assay: competition of [3H]oxytocin binding to a crude membrane preparation of uteri from DES-treated rats; conditions: 1 nM [3H]OT; 60 minutes; 22° C.; pH 7.4; rat uterus membranes
T1 construct: from tissue; host or cells: rat uterus (DES-treated), crude membrane preparation
T1 sequence (P70536 1-388): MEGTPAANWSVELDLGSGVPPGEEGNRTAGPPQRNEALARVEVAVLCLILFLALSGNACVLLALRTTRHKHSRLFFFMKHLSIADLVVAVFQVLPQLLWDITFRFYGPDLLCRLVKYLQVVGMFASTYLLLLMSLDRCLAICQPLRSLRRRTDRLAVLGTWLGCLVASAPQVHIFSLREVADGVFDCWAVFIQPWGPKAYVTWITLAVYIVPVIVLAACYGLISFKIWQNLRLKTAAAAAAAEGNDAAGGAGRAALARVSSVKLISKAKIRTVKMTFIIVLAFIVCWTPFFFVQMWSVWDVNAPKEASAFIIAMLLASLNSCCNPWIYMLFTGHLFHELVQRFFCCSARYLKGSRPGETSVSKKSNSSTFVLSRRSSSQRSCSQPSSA
Description: The high affinity binding of [^3 H] Oxytocin (OT)([tyrosyl, 3,5-[^3 H]OT; 30-60 Ci/mmol; New England Nuclear. Boston, Mass.) to uterine OT receptors was based on an assay (Fuchs, A-R; Fuchs, F; Soloff, MS. 1985 J. Clin. Endocrinol. Metab. 60:37) using a crude membrane preparation of uteri taken from diethylstilbestrol dipropionate (DES)-treated (0.3 mg/kg, ip; 18-24) rats. Competition studies were conducted at equilibrium (60 minutes; 22° C.) using 1 nM[^3 H]OT in the following assay buffer: 50 mM Tris-HCl, 5 mM MgCl2, and 0.1% BSA, pH 7.4. Nonspecific binding (10% of the total binding) was determined using 1 μM unlabeled OT and the binding reaction was terminated by filtration through glass fiber filters using a cell harvester (model 7019, Skatron, Inc., Sterling, Va.). IC50 (the concentration of tested compound that inhibits 50% of OT) was reported, unless otherwise noted.
IC50 values were determined for both [^3 H]OT and [^3 H]AVP binding assays by linear regression of the relation log concentration of compound vs. percent inhibition of specific binding.

premature labor = conditions: compared with ritodrine; cited from earlier work

SMILES: CC(C)(C)NCC(O)c1cc(O)cc(O)c1 (stereo not drawn) [terbutaline]
side effects (in words) ([1]; tocolytic use, in the mother): side effects similar to those of ritodrine

SMILES: O=S(=O)([O-])[O-].[Mg+2] [Magnesium sulfate]
toxicity at plasma concentrations above the therapeutic range (in words) ([1]; above 4 to 8 mg/dL plasma): can cause inhibition of cardiac conduction and neuromuscular transmission, respiratory depression and cardiac arrest
therapeutic range of plasma concentrations ([1]; plasma): 4 to 8 mg/dL

SMILES: CC(NCCc1ccc(O)cc1)C(O)c1ccc(O)cc1 (stereo not drawn) [Ritodrine]
side effects (in words) ([1]; tocolytic use, in the mother): causes a number of cardiovascular and metabolic side effects in the mother, including tachycardia, increased renin secretion, hyperglycemia (and reactive hypoglycemia in the infant)

SMILES: O=C(Cc1ccc2c(c1)OCO2)N1CCC2(C=Cc3ccccc32)CC1 [Example 10]
IC50 (uterine OT receptors): 3700 nM

SMILES: CCO [Ethanol]
effectiveness in preventing premature labor (in words) (premature labor): as effective as ritodrine in preventing premature labor
reduction in the incidence of fetal respiratory distress (in words) (premature labor): does not produce a corresponding reduction in the incidence of fetal respiratory distress that administration of ritodrine does

SMILES: CC(C)(C)NCC(O)c1ccc(O)c(CO)c1 (stereo not drawn) [albuterol]
side effects (in words) ([1]; in vivo): side effects similar to those of ritodrine

Next, values leading:

IC50 (uterine OT receptors): 520 nM
SMILES: O=C(Nc1ccc(CC(=O)N2CCC3(C=Cc4ccccc43)CC2)cc1)c1ccc2[nH]nnc2c1 [Example 16]

IC50 (uterine OT receptors): 150 nM
SMILES: O=C(Nc1ccc(CC(=O)N2CCC3(C=Cc4ccccc43)CC2)cc1)c1ccc2[nH]cnc2c1 [Example 12]

IC50 (uterine OT receptors): 310 nM
SMILES: O=C(Nc1ccc(CC(=O)N2CCC3(C=Cc4ccccc43)CC2)cc1)c1ccc2[nH]ccc2c1 [Example 15]

IC50 (uterine OT receptors): 170 nM
SMILES: O=C(CCc1c[nH]cn1)Nc1ccc(CC(=O)N2CCC3(CCc4ccccc43)CC2)cc1 [Example 14]
